In PMC9150124, “Design of a Potent, Selective, and Brain-Penetrant Inhibitor of Wnt-Deactivating Enzyme Notum by Optimization of a Crystallographic Fragment Hit” (Journal of Medicinal Chemistry, 2022):

Legend:
Experiment in all cases: SelectScreen kinase profiling, SSBK LanthaScreen Binding SP Technology
[1] = target: kinase named in conditions (Homo sapiens, UniProt Q8N5S9); conditions: CAMKK1 (CAMKKA), 10 μM
Method: (§1) Kinase selectivity screening was performed by Thermo Fisher Scientific (Paisley, U.K.) in their SelectScreen Biochemical Kinase Profiling Service. Assay information and data are presented in the Supporting Information.
(§2) Kinase selectivity screening was performed by ThermoFisher Scientific (Paisley, U.K.) in their SelectScreenTM
(§3) Biochemical Kinase Profiling service .
(§4) Illustration reproduced courtesy of Cell Signaling technology, Inc.
(§5) (B) Illustration of phylogenetic tree of kinases screened.

[2] = target: kinase named in conditions (Homo sapiens, UniProt Q9UM73, L1196M); conditions: ALK L1196M, 10 μM
Method: as §1, §2, §3, §4, §5

[3] = target: kinase named in conditions (Homo sapiens, UniProt Q13163); conditions: MAP2K5 (MEK5), 10 μM
Method: as §1, §2, §3, §4, §5

[4] = target: kinase named in conditions (Homo sapiens, UniProt Q07912); conditions: TNK2 (ACK), 10 μM
Method: as §1, §2, §3, §4, §5

[5] = target: kinase named in conditions (Homo sapiens, UniProt Q8TD08); conditions: MAPK15 (ERK7), 10 μM
Method: as §1, §2, §3, §4, §5

[6] = target: kinase named in conditions (Homo sapiens, UniProt Q9UEE5); conditions: STK17A (DRAK1), 10 μM
Method: as §1, §2, §3, §4, §5

[7] = target: kinase named in conditions (Homo sapiens, UniProt Q04771, R206H); conditions: ACVR1 (ALK2) R206H, 10 μM
Method: as §1, §2, §3, §4, §5

[8] = target: kinase named in conditions (Homo sapiens, UniProt Q9UM73, C1156Y); conditions: ALK C1156Y, 10 μM
Method: as §1, §2, §3, §4, §5

[9] = target: kinase named in conditions (Homo sapiens, UniProt P00519, H396P); conditions: ABL1 H396P, 10 μM
Method: as §1, §2, §3, §4, §5

[10] = target: kinase named in conditions (Homo sapiens, UniProt Q86YV6); conditions: MYLK4, 10 μM
Method: as §1, §2, §3, §4, §5

[11] = target: kinase named in conditions (Homo sapiens, UniProt P07949, G691S); conditions: RET G691S, 10 μM
Method: as §1, §2, §3, §4, §5

[12] = target: kinase named in conditions (Homo sapiens, UniProt P22607, G697C); conditions: FGFR3 G697C, 10 μM
Method: as §1, §2, §3, §4, §5

[13] = target: kinase named in conditions (Homo sapiens, UniProt Q9Y2K2); conditions: SIK3, 10 μM
Method: as §1, §2, §3, §4, §5

[14] = target: kinase named in conditions (Homo sapiens, UniProt Q09013); conditions: DMPK, 10 μM
Method: as §1, §2, §3, §4, §5

[15] = target: kinase named in conditions (Homo sapiens, UniProt Q76MJ5); conditions: ERN2, 10 μM
Method: as §1, §2, §3, §4, §5

[16] = target: kinase named in conditions (Homo sapiens, UniProt Q9UF33); conditions: EPHA6, 10 μM
Method: as §1, §2, §3, §4, §5

[17] = target: kinase named in conditions (Homo sapiens, UniProt P30530, R499C); conditions: AXL R499C, 10 μM
Method: as §1, §2, §3, §4, §5

[18] = target: kinase named in conditions (Homo sapiens, UniProt P33981); conditions: TTK, 10 μM
Method: as §1, §2, §3, §4, §5

[19] = target: kinase named in conditions (Homo sapiens, UniProt P37173); conditions: TGFBR2, 10 μM
Method: as §1, §2, §3, §4, §5

[20] = target: kinase named in conditions (Homo sapiens, UniProt O00444); conditions: PLK4, 10 μM
Method: as §1, §2, §3, §4, §5

[21] = target: kinase named in conditions (Homo sapiens, UniProt Q99683); conditions: MAP3K5 (ASK1), 10 μM
Method: as §1, §2, §3, §4, §5

[22] = target: kinase named in conditions (Homo sapiens, UniProt P22694); conditions: PRKACB (PRKAC beta), 10 μM
Method: as §1, §2, §3, §4, §5

[23] = target: kinase named in conditions (Homo sapiens, UniProt P52564, S207E/T211E); conditions: MAP2K6 (MKK6) S207E T211E, 10 μM
Method: as §1, §2, §3, §4, §5

[24] = target: kinase named in conditions (Homo sapiens, UniProt P53779); conditions: MAPK10 (JNK3), 10 μM
Method: as §1, §2, §3, §4, §5

[25] = target: kinase named in conditions (Homo sapiens, UniProt Q8NEV4); conditions: MYO3A (MYO3 alpha), 10 μM
Method: as §1, §2, §3, §4, §5

[26] = target: kinase named in conditions (Homo sapiens, UniProt P10721, T670E); conditions: KIT T670E, 10 μM
Method: as §1, §2, §3, §4, §5

[27] = target: kinase named in conditions (Homo sapiens, UniProt Q9UBE8); conditions: NLK, 10 μM
Method: as §1, §2, §3, §4, §5

[28] = target: kinase named in conditions (Homo sapiens, UniProt P22612); conditions: PRKACG (PRKAC gamma), 10 μM
Method: as §1, §2, §3, §4, §5

[29] = target: kinase named in conditions (Homo sapiens, UniProt O75716); conditions: STK16 (PKL12), 10 μM
Method: as §1, §2, §3, §4, §5

[30] = target: kinase named in conditions (Homo sapiens, UniProt Q9BYT3); conditions: STK33, 10 μM
Method: as §1, §2, §3, §4, §5

[31] = target: kinase named in conditions (Homo sapiens, UniProt Q02779); conditions: MAP3K10 (MLK2), 10 μM
Method: as §1, §2, §3, §4, §5

[32] = target: kinase named in conditions (Homo sapiens, UniProt O75460); conditions: ERN1, 10 μM
Method: as §1, §2, §3, §4, §5

[33] = target: kinase named in conditions (Homo sapiens, UniProt Q13873); conditions: BMPR2, 10 μM
Method: as §1, §2, §3, §4, §5

[34] = target: kinase named in conditions (Homo sapiens, UniProt P10721, D816H); conditions: KIT D816H, 10 μM
Method: as §1, §2, §3, §4, §5

With `FC(F)(F)c1c(Cl)ccc(-n2ccnn2)c1Cl` [8l, 1-(2,4-Dichloro-3-(trifluoromethyl)phenyl)-1H-1,2,3-triazole] the inhibition at 10 µM [1] was -3%, the inhibition at 10 µM [2] was -3% and the inhibition at 10 µM [3] was -6%. For the same compound, the inhibition at 10 µM [4] was 3%, the inhibition at 10 µM [5] was 1% and the inhibition at 10 µM [6] was 13%. For the same compound, the inhibition at 10 µM [7] was 0%, the inhibition at 10 µM [8] was 4% and the inhibition at 10 µM [9] was 7%. The inhibition at 10 µM [10] was -5%, the inhibition at 10 µM [11] was -8% and the inhibition at 10 µM [12] was -1%. For the same compound, the inhibition at 10 µM [13] was 4%, the inhibition at 10 µM [14] was 2% and the inhibition at 10 µM [15] was 9%. It also gave an inhibition at 10 µM [16] of 1%, an inhibition at 10 µM [17] of 5% and an inhibition at 10 µM [18] of 5%. For the same compound, the inhibition at 10 µM [19] was 7%, the inhibition at 10 µM [20] was -1% and the inhibition at 10 µM [21] was 17%. For the same compound, the inhibition at 10 µM [22] was 1%, the inhibition at 10 µM [23] was 11% and the inhibition at 10 µM [24] was -1%. It also gave an inhibition at 10 µM [25] of -6%, an inhibition at 10 µM [26] of 1% and an inhibition at 10 µM [27] of 5%. For the same compound, the inhibition at 10 µM [28] was 6%, the inhibition at 10 µM [29] was 17% and the inhibition at 10 µM [30] was 6%. It also gave an inhibition at 10 µM [31] of 1%, an inhibition at 10 µM [32] of -4% and an inhibition at 10 µM [33] of 13%. The inhibition at 10 µM [34] was -2%.
